Legend:
HeLa [1] = test: Concentration of compound that decreased the percentage of formazan production in treated HRV-14 virus infected cells to that produced in uninfected cells; type: functional; details: Homo sapiens
[2] = molecular target: T1, Human rhinovirus A protease (Human rhinovirus sp.) (UniProt Q4U254); test: Catalytic rate constant (Kobs/[I]) evaluated against human rhinovirus (HRV) serotype 14 3C Protease (3CP); details: Human rhinovirus B (HRV-14)
T1 sequence (whole entry): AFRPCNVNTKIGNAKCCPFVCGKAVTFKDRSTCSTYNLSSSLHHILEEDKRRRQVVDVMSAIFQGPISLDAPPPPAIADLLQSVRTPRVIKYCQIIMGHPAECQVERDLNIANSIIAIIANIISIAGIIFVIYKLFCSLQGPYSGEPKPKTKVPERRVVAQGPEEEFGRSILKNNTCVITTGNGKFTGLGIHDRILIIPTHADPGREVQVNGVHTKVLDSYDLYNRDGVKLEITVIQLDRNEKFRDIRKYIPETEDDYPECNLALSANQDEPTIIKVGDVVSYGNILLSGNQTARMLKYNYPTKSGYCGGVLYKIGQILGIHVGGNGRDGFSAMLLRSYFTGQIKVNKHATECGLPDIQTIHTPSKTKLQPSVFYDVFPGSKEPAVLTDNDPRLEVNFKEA

HeLa [3] = test: Formazan production in HRV-14 virus infected cells; type: functional, cell-based; details: Homo sapiens

| Structure (SMILES) | CC50 (HeLa [1]) [µM] | K obs / 1 [2] [M⁻¹ s⁻¹] | EC50 (HeLa [3]) [µM] |
| --- | --- | --- | --- |
| CC(C)C[C@H](NC(=O)OCc1ccccc1)C(=O)N[C@@H](Cc1ccccc1)C(=O)N[C@H](/C=C/C(=O)N(C)c1ccccc1)CCC(N)=O | > 320 | 580 | 158 |
| COC(=O)/C=C\[C@H](CCC(N)=O)NC(=O)[C@H](Cc1ccccc1)NC(=O)[C@H](CC(C)C)NC(=O)OCc1ccccc1 | > 320 | 2400 | 3.2 |
| CC(C)C[C@H](NC(=O)OCc1ccccc1)C(=O)N[C@@H](Cc1ccccc1)C(=O)N[C@H](/C=C/C(=O)N1CCCO1)CCC(N)=O | > 320 | 14000 | 45 |
| CC(C)C[C@H](NC(=O)OCc1ccccc1)C(=O)N[C@@H](Cc1ccccc1)C(=O)N[C@H](/C=C/C(=O)N1CCc2cccc(S(C)(=O)=O)c21)CCC(N)=O | > 320 | < 1000 | > 320 |
| CC(C)C[C@H](NC(=O)OCc1ccccc1)C(=O)N[C@@H](Cc1ccccc1)C(=O)N[C@H](/C=C/C(=O)N(C)C)CCC(N)=O | > 100 | 1300 | 56 |
| CC(C)C[C@H](NC(=O)OCc1ccccc1)C(=O)N[C@@H](Cc1ccccc1)C(=O)N[C@H](/C=C/C(=O)N(C)O)CCC(N)=O | 42 | 1800 | 42 |
| CC(C)C[C@H](NC(=O)OCc1ccccc1)C(=O)N[C@@H](Cc1ccccc1)C(=O)N[C@H](/C=C/C(=O)c1ccc([N+](=O)[O-])cc1)CCC(N)=O | 32 | 310000 | 32 |
| CC(C)C[C@H](NC(=O)OCc1ccccc1)C(=O)N[C@@H](Cc1ccccc1)C(=O)N[C@H](/C=C/C(=O)c1ccc(C#N)cc1)CCC(N)=O | > 320 | 200000 | 50 |
| CC(C)C[C@H](NC(=O)OCc1ccccc1)C(=O)N[C@@H](Cc1ccccc1)C(=O)N[C@H](/C=C/C(=O)O)CCC(N)=O | > 320 | 30 | > 100 |
| CC(C)C[C@H](NC(=O)OCc1ccccc1)C(=O)N[C@@H](Cc1ccccc1)C(=O)N[C@H](/C=C/C(=O)N1CCCCO1)CCC(N)=O | 100 | 19000 | 16 |
| CC(C)C[C@H](NC(=O)OCc1ccccc1)C(=O)N[C@@H](Cc1ccccc1)C(=O)N[C@H](/C=C/C(=O)N1CCCC1)CCC(N)=O | > 100 | 2100 | 22 |
| CCN(CC)c1ccc(C(=O)/C=C/[C@H](CCC(N)=O)NC(=O)[C@H](Cc2ccccc2)NC(=O)[C@H](CC(C)C)NC(=O)OCc2ccccc2)cc1 | 25 | 4500 | > 25 |
| CC(C)C[C@H](NC(=O)OCc1ccccc1)C(=O)N[C@@H](Cc1ccccc1)C(=O)N[C@H](/C=C/C(=O)N1CCCc2ccccc21)CCC(N)=O | > 320 | 1000 | 126 |
| CC(C)C[C@H](NC(=O)OCc1ccccc1)C(=O)N[C@@H](Cc1ccccc1)C(=O)N[C@H](/C=C/C(=O)N1CCC(O)C1)CCC(N)=O (some centres undefined) | > 320 | 1200 | > 320 |
| CC(C)C[C@H](NC(=O)OCc1ccccc1)C(=O)N[C@@H](Cc1ccccc1)C(=O)N[C@H](/C=C/c1cocn1)CCC(N)=O | > 100 | 0 | > 100 |
| CCOP(=O)(/C=C/[C@H](CCC(N)=O)NC(=O)[C@H](Cc1ccccc1)NC(=O)[C@H](CC(C)C)NC(=O)OCc1ccccc1)OCC | > 320 | 0 | > 320 |
| CC(C)C[C@H](NC(=O)OCc1ccccc1)C(=O)N[C@@H](Cc1ccccc1)C(=O)N[C@H](/C=C/C(=O)c1ccccc1)CCC(N)=O | 16 | 500000 | 4 |
| CC(C)C[C@H](NC(=O)OCc1ccccc1)C(=O)N[C@@H](Cc1ccccc1)C(=O)N[C@H](/C=C/C(=O)N1CCc2cc(Br)ccc21)CCC(N)=O | > 320 | 5800 | 47 |
| CC(C)C[C@H](NC(=O)OCc1ccccc1)C(=O)N[C@@H](Cc1ccccc1)C(=O)N[C@H](/C=C/C(=O)OC1CCCC1)CCC(N)=O | > 100 | 14600 | 0.56 |
| CC(C)C[C@H](NC(=O)OCc1ccccc1)C(=O)N[C@@H](Cc1ccccc1)C(=O)N[C@H](/C=C/C(=O)NC1CCCC1)CCC(N)=O | > 320 | 250 | > 100 |
| CC(C)C[C@H](NC(=O)OCc1ccccc1)C(=O)N[C@@H](Cc1ccccc1)C(=O)N[C@H](/C=C1\CCCOC1=O)CCC(N)=O | > 100 | – | 16 |
| CCNC(=O)/C=C/[C@H](CCC(N)=O)NC(=O)[C@H](Cc1ccccc1)NC(=O)[C@H](CC(C)C)NC(=O)OCc1ccccc1 | > 320 | 350 | > 320 |

| Structure (SMILES) | CC50 (HeLa [1]) [µM] | K obs / 1 [2] [M⁻¹ s⁻¹] | EC50 (HeLa [3]) [µM] |
| --- | --- | --- | --- |
| CC(C)C[C@H](NC(=O)OCc1ccccc1)C(=O)N[C@@H](Cc1ccccc1)C(=O)N[C@H](/C=C/C(=O)N1CCc2cc(F)ccc21)CCC(N)=O | > 320 | 5400 | 11 |
| CC(C)C[C@H](NC(=O)OCc1ccccc1)C(=O)N[C@@H](Cc1ccccc1)C(=O)N[C@H](/C=C/c1ccno1)CCC(N)=O | > 320 | 600 | > 320 |
| CC(C)C[C@H](NC(=O)OCc1ccccc1)C(=O)N[C@@H](Cc1ccccc1)C(=O)N[C@H](/C=C/C(=O)N1CCc2cccc(Cl)c21)CCC(N)=O | > 320 | 5400 | 56 |
| CC(C)C[C@H](NC(=O)OCc1ccccc1)C(=O)N[C@@H](Cc1ccccc1)C(=O)N[C@H](/C=C/C(=O)OCc1ccccc1)CCC(N)=O | > 100 | 39400 | 3.2 |
| CC(C)C[C@H](NC(=O)OCc1ccccc1)C(=O)N[C@@H](Cc1ccccc1)C(=O)N[C@H](/C=C/C(=O)C(C)(C)C)CCC(N)=O | 5.6 | 15000 | 1.7 |
| CC(C)C[C@H](NC(=O)OCc1ccccc1)C(=O)N[C@@H](Cc1ccccc1)C(=O)N[C@H](/C=C/C(=O)OCC(C)(C)C)CCC(N)=O | > 100 | 9800 | 0.5 |
| CO/N=C/C=C/[C@H](CCC(N)=O)NC(=O)[C@H](Cc1ccccc1)NC(=O)[C@H](CC(C)C)NC(=O)OCc1ccccc1 | > 320 | 0 | 100 |
| CC(C)C[C@H](NC(=O)OCc1ccccc1)C(=O)N[C@@H](Cc1ccccc1)C(=O)N[C@H](/C=C/S(C)(=O)=O)CCC(N)=O | > 320 | 160 | > 320 |
| COc1ccc2c(c1)CCN2C(=O)/C=C/[C@H](CCC(N)=O)NC(=O)[C@H](Cc1ccccc1)NC(=O)[C@H](CC(C)C)NC(=O)OCc1ccccc1 | > 320 | 3400 | > 320 |
| COC(=O)N1CC/C(=C\[C@H](CCC(N)=O)NC(=O)[C@H](Cc2ccccc2)NC(=O)[C@H](CC(C)C)NC(=O)OCc2ccccc2)C1=O | > 100 | 8400 | 28 |
| CON1CC/C(=C\[C@H](CCC(N)=O)NC(=O)[C@H](Cc2ccccc2)NC(=O)[C@H](CC(C)C)NC(=O)OCc2ccccc2)C1=O | > 100 | 800 | 18 |
| CC(C)C[C@H](NC(=O)OCc1ccccc1)C(=O)N[C@@H](Cc1ccccc1)C(=O)N[C@H](/C=C/S(=O)(=O)c1ccccc1)CCC(N)=O | > 320 | 270 | 200 |
| CC(C)C[C@H](NC(=O)OCc1ccccc1)C(=O)N[C@@H](Cc1ccccc1)C(=O)N[C@H](/C=C/C(=O)N1CCc2ccc(S(=O)(=O)N3CCCC3)cc21)CCC(N)=O | > 320 | 22700 | > 320 |
| CC(C)C[C@H](NC(=O)OCc1ccccc1)C(=O)N[C@@H](Cc1ccccc1)C(=O)N[C@H](/C=C/C(=O)Nc1ccccc1)CCC(N)=O | > 320 | 200 | > 320 |
| CC(C)C[C@H](NC(=O)OCc1ccccc1)C(=O)N[C@@H](Cc1ccccc1)C(=O)N[C@H](/C=C/C(=O)n1ccc2ccccc21)CCC(N)=O | 29 | 53000 | 1.8 |
| CC(C)C[C@H](NC(=O)OCc1ccccc1)C(=O)N[C@@H](Cc1ccccc1)C(=O)N[C@H](/C=C/C#N)CCC(N)=O | > 320 | 0 | 18 |
| CC(C)C[C@H](NC(=O)OCc1ccccc1)C(=O)N[C@@H](Cc1ccccc1)C(=O)N[C@H](/C=C/C(=O)N1CCc2ccc(S(C)(=O)=O)cc21)CCC(N)=O | > 320 | 12900 | > 320 |
| CSc1cccc2c1N(C(=O)/C=C/[C@H](CCC(N)=O)NC(=O)[C@H](Cc1ccccc1)NC(=O)[C@H](CC(C)C)NC(=O)OCc1ccccc1)CC2 | – | 300 | – |
| CCOC(=O)/C(F)=C/[C@H](CCC(N)=O)NC(=O)[C@H](Cc1ccccc1)NC(=O)[C@H](CC(C)C)NC(=O)OCc1ccccc1 | > 320 | 60 | > 320 |
| CC(C)C[C@H](NC(=O)OCc1ccccc1)C(=O)N[C@@H](Cc1ccccc1)C(=O)N[C@H](/C=C/C(=O)N1CCc2cc(Cl)ccc21)CCC(N)=O | 56 | 450 | 5.6 |
| COc1ccc(C(=O)/C=C/[C@H](CCC(N)=O)NC(=O)[C@H](Cc2ccccc2)NC(=O)[C@H](CC(C)C)NC(=O)OCc2ccccc2)cc1 | 100 | 150000 | 22 |
| CC(C)C[C@H](NC(=O)OCc1ccccc1)C(=O)N[C@@H](Cc1ccccc1)C(=O)N[C@H](/C=C/c1ccccn1)CCC(N)=O | > 100 | 120 | > 100 |

Source: ChEMBL document CHEMBL1131036, “Structure-based design, synthesis, and biological evaluation of irreversible human rhinovirus 3C protease inhibitors. 1. Michael acceptor structure-activity studies” (J Med Chem, 1998)
